Measurements published in PubChem BioAssay (NCI).
Values joined by “and” are separate entries in the source; they are usually repeats but may differ in a detail not shown here. Equal entries are not always repeated.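 Exposure lasted 48 hours, with cells grown in 96-well plates and compounds tested at five concentrations. At the GI50, growth is halved. TGI is the concentration that stops growth completely.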

Assays:
Experiment in all cases: inhibition of tumour cell growth, NCI panel, 48 h
[1] = tested on: M14 melanoma
[2] = tested on: UACC-257 melanoma
[3] = tested on: NCI-H522 lung
[4] = tested on: PC-3 prostate
[5] = tested on: SN12C renal
[6] = tested on: MDA-MB-231 breast
[7] = tested on: SF-268 CNS
[8] = tested on: K-562 leukemia
[9] = tested on: NCI/ADR-RES ovarian
[10] = tested on: HS 578T breast

Structure (SMILES) | GI50 [1] | TGI [1] | TGI [2] | GI50 [3] | TGI [3] | TGI [4] | GI50 [5] | TGI [5] | TGI [6] | TGI [7] | TGI [8] | TGI [9] | GI50 [2] | GI50 [4] | GI50 [10] | TGI [10] | GI50 [6] | GI50 [7] | GI50 [8] | GI50 [9]
COc1cc(C2c3cc4c(cc3[C@@H](Nc3ccc(F)cc3)C3COC(=O)[C@H]23)OCO4)cc(OC)c1O (stereo partly drawn) | 0.795 µM | 17.4 µM | 31.3 µM | 0.823 µM | 9.12 µM | 23.4 µM | 0.718 µM | 9.64 µM | 17.4 µM | 27.7 µM | 43 µM | 45.7 µM | – | – | – | – | – | – | – | –
COc1cc(OC)c(/C=C/S(=O)(=O)Cc2ccc(OC)c(N)n2)c(OC)c1 | < 0.01 µM | > 100 µM | > 100 µM | < 0.01 µM | – | > 100 µM | < 0.0171 µM | > 100 µM | > 100 µM | > 100 µM | > 100 µM | – | > 100 µM | < 0.01 µM | < 0.01 µM | > 100 µM | < 0.0248 µM | < 0.01 µM | < 0.01 µM | –
COC1=CC(=O)C2(C=C1OC)OC[C@H]1Oc3c(ccc4c3C=CC(C)(C)O4)C(=O)[C@H]12 (stereo partly drawn) | – | > 100 µM | > 100 µM | – | 51.5 µM | – | – | – | – | – | > 100 µM | – | – | – | – | – | – | – | – | –
O=C1c2c(c3c4ccccc4n(CC4CO4)c3c3[nH]c4ccccc4c23)C(=O)N1Cc1ccccc1 (stereo not drawn) | – | > 100 µM | > 100 µM | – | > 100 µM | – | – | > 100 µM | – | > 100 µM | > 100 µM | – | – | – | – | – | – | – | – | –
CCN(CC)c1ccc(N=Nc2ccc(-c3nc4cccnc4s3)cc2)cc1 | – | > 100 µM | > 100 µM | – | > 100 µM | – | – | > 100 µM | – | > 100 µM | > 100 µM | – | – | – | – | – | – | – | – | –
CSCSCC(CO)NC(=O)/C=C/c1c(C)[nH]c(=O)[nH]c1=O (stereo not drawn) | – | > 100 µM | > 100 µM | – | – | – | – | > 100 µM | – | > 100 µM | > 100 µM | – | – | – | – | – | – | – | – | –
COc1cc2c3c(c4cc(OC)c(OC)cc4c2cc1OC)CN1CCC[C@H]1C3 | 0.0502 µM and < 0.0142 µM | 2.15 µM and 1.21 µM | 0.338 µM and 0.937 µM | – | 1.01 µM and 0.54 µM | – | 0.0429 µM and < 0.0105 µM | 1.3 µM and 0.374 µM | 0.174 µM | – | > 10 µM and 19.3 µM | – | – | – | – | > 29.2 µM | – | 0.0142 µM | – | 0.111 µM and 0.0379 µM
CCCCCCNC(=O)CCN(C(=O)O)S(=O)(=O)c1ccc(NC(=O)c2ccccc2)cc1 | – | > 100 µM | > 69.6 µM | – | > 100 µM | – | – | > 100 µM | – | > 100 µM | > 71.1 µM | – | – | – | – | – | – | – | – | –
NP1(Oc2ccc(F)cc2)=NP(N)(Oc2ccc(F)cc2)=NP(Oc2ccc(F)cc2)(Oc2ccc(F)cc2)=N1 (stereo not drawn) | – | 19.4 µM | 24.7 µM | – | – | 16.4 µM | – | 18.5 µM | 23.4 µM | 26.7 µM | – | 18.4 µM | – | – | – | 17.7 µM | – | – | – | –
Cc1ccc2nc(CN(CCN(Cc3nc4ccc(C)cc4[nH]3)Cc3nc4ccc(C)cc4[nH]3)Cc3nc4ccc(C)cc4[nH]3)[nH]c2c1 | 1.65 µM | 3.1 µM | 3.24 µM | – | – | 3.51 µM | 1.86 µM | 3.26 µM | 3.3 µM | – | 3.76 µM | 3.36 µM | 1.81 µM | 1.85 µM | – | – | 1.88 µM | – | 1.72 µM | 1.89 µM
O=C1c2ccc3c4c(ccc(c24)C(=O)N1CCCCO)C(=O)N(CCCCO)C3=O | – | – | 2.71 µM | 1.55 µM | 5.73 µM | 30.1 µM | 1.88 µM | 6.63 µM | 97.9 µM | 11.5 µM | > 100 µM | 11 µM | 1.3 µM | 3.1 µM | 5.14 µM | 24 µM | 2.9 µM | 2.09 µM | 2.54 µM | 2.33 µM
COc1cc(C(=O)/C=C/c2c[nH]c3ccccc23)cc(OC)c1OC | < 0.0155 µM | 39.4 µM | – | < 0.0107 µM | 0.0391 µM | 27.9 µM | 0.0631 µM | 18.9 µM | 12.4 µM | 26.3 µM | 12.5 µM | 33.6 µM | – | < 0.0212 µM | 0.0208 µM | 30.4 µM | 0.132 µM | 0.0735 µM | < 0.01 µM | < 0.0144 µM
O=C(CC1(O)C(=O)Nc2ccccc21)c1cccc(O)c1 (stereo not drawn) | – | > 100 µM | > 100 µM | – | > 100 µM | – | – | > 100 µM | – | > 100 µM | > 100 µM | – | – | – | – | – | – | – | – | –
COc1cccc(NC(=O)/C(CS(=O)(=O)CCC(C(C)=O)C(C)=O)=N\NC(C)(C)C)c1 | – | > 100 µM | > 100 µM | – | > 100 µM | – | – | > 100 µM | – | > 100 µM | > 100 µM | – | – | – | – | – | – | – | – | –
CC(=O)O[C@H]1CSC[C@@H](OC(C)=O)C1[N+](=O)[O-] (stereo partly drawn) | – | 87.7 µM | 52 µM | – | 36.8 µM | – | – | > 100 µM | – | > 100 µM | > 100 µM | – | – | – | – | – | – | – | – | –
OC[C@H]1C[C@](O)(c2ccccc2Cl)[C@@H](c2ccccc2Cl)O1 | – | – | 42.6 µM | 13.4 µM | 38.4 µM | 74.6 µM | 20.8 µM | 41.2 µM | 47.6 µM | > 100 µM | 56.9 µM | > 100 µM | 19 µM | 24.2 µM | 16.3 µM | 38.4 µM | 18.6 µM | 24.2 µM | 20 µM | 29.4 µM
Cc1ccccc1NC(=O)C(=O)C(C(=O)c1ccccc1F)C1OC(=O)c2ccccc21 (stereo not drawn) | – | 30.3 µM | > 100 µM | – | 19.1 µM | – | – | 71.2 µM | – | 62.5 µM | > 100 µM | – | – | – | – | – | – | – | – | –
COC(=O)CC(=O)OC1C[C@@H]2CCC3C(C)(C)CCC[C@]3(C)C23CC[C@@]1(C)C3 (stereo partly drawn) | – | 33.7 µM | 35.3 µM | – | 25.7 µM | – | – | 31.3 µM | – | 35.9 µM | > 100 µM | – | – | – | – | – | – | – | – | –
CC(=O)OC1(C(C)=O)CC2(c3ccccc3)OC1(c1ccccc1)c1ccccc12 (stereo not drawn) | – | > 100 µM | 25.1 µM | – | 29.8 µM | – | – | > 100 µM | – | > 100 µM | – | – | – | – | – | – | – | – | – | –
C=C(C)[C@@H]1CC[C@]2(C(=O)O)CC[C@]3(C)[C@H](CC[C@@H]4[C@@]5(C)CCC(N)C(C)(C)[C@@H]5CC[C@]43C)[C@@H]12 (stereo partly drawn) | – | – | – | – | – | – | 1.78 µM | 3.35 µM | 3.69 µM | – | 3.36 µM | – | – | – | 2.48 µM | 5.38 µM | 1.88 µM | – | 0.682 µM | –
CN(C(=O)C12C3C4C1C1C2C3C41C#N)C(C)(C)C (stereo not drawn) | – | > 100 µM | > 100 µM | – | > 100 µM | – | – | > 100 µM | – | > 100 µM | > 100 µM | – | – | – | – | – | – | – | – | –
O=C1N(c2ccc(Cl)cc2)C(=O)C2(SC=NN2Cc2ccccc2)N1c1ccc(Cl)cc1 (stereo not drawn) | – | > 100 µM | > 100 µM | – | > 100 µM | – | – | > 100 µM | – | > 100 µM | > 100 µM | – | – | – | – | – | – | – | – | –
